Laboratory results: PubChem BioAssay AID248 (DTP/NCI, 2004)
Values joined by “and” are separate entries in the source; they are usually repeats but may differ in a detail not shown here. Equal values may be shown once. Toxic doses and inconclusive results are not listed. No stated cut-off is given here; in the data, active means T/C of 150% or more; inactive means T/C below 125%.

Tested on: L1210 leukemia ip in BDF1 mice, survival T/C
Experiment: NCI In Vivo Anticancer Drug Screen. Data for tumor model L1210 Leukemia (intraperitoneal) in B6D2F1 (BDF1) mice
Settings: endpoint: mean survival time, higher = longer survival
Summary of the method: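 Transplanted-tumor mice were given test agent; controls received vehicle only. Survival readings from the two groups were divided (treated over control).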

[1] = dose: 50.0 mg/kg/injection, schedule: Q01DX009 (ip), vehicle: saline
[2] = dose: 100.0 mg/kg/injection, schedule: Q01DX009 (ip), vehicle: saline
[3] = dose: 100.0 mg/kg/injection, schedule: Q04DX003 (ip), vehicle: saline
[4] = dose: 200.0 mg/kg/injection, schedule: Q04DX003 (ip), vehicle: saline
[5] = dose: 100.0 mg/kg/injection, schedule: Q01DX009 (ip), vehicle: saline with Tween-80
[6] = dose: 200.0 mg/kg/injection, schedule: Q01DX009 (ip), vehicle: saline with Tween-80
[7] = dose: 400.0 mg/kg/injection, schedule: Q01DX009 (ip), vehicle: saline with Tween-80
[8] = dose: 400.0 mg/kg/injection, schedule: Q04DX003 (ip), vehicle: saline
[9] = dose: 100.0 mg/kg/injection, schedule: Q01DX001 (ip), vehicle: Klucel (hydroxypropylcellulose) (HPC)
[10] = dose: 200.0 mg/kg/injection, schedule: Q01DX001 (ip), vehicle: Klucel (hydroxypropylcellulose) (HPC)
[11] = dose: 400.0 mg/kg/injection, schedule: Q01DX001 (ip), vehicle: Klucel (hydroxypropylcellulose) (HPC)
[12] = dose: 100.0 mg/kg/injection, schedule: Q04DX003 (ip), vehicle: Klucel (hydroxypropylcellulose) (HPC)
[13] = dose: 200.0 mg/kg/injection, schedule: Q04DX003 (ip), vehicle: Klucel (hydroxypropylcellulose) (HPC)
[14] = dose: 400.0 mg/kg/injection, schedule: Q04DX003 (ip), vehicle: Klucel (hydroxypropylcellulose) (HPC)
[15] = dose: 200.0 mg/kg/injection, schedule: Q01DX009 (ip), vehicle: saline
[16] = dose: 400.0 mg/kg/injection, schedule: Q01DX009 (ip), vehicle: saline
[17] = dose: 100.0 mg/kg/injection, schedule: Q01DX009 (ip), vehicle: Klucel (hydroxypropylcellulose) (HPC)
[18] = dose: 200.0 mg/kg/injection, schedule: Q01DX009 (ip), vehicle: Klucel (hydroxypropylcellulose) (HPC)
[19] = dose: 400.0 mg/kg/injection, schedule: Q01DX009 (ip), vehicle: Klucel (hydroxypropylcellulose) (HPC)

Measured: T/C

CCCC(=O)OC(=O)N/C=C/NC(=O)OC(=O)CCC
inactive: dose: 100.0 mg/kg/injection, schedule: Q01DX001 (ip), vehicle: alcohol 103 % of control | dose: 200.0 mg/kg/injection, schedule: Q01DX001 (ip), vehicle: alcohol 103 % of control | dose: 400.0 mg/kg/injection, schedule: Q01DX001 (ip), vehicle: alcohol 94 % of control

C/C=C\C=N\N(C)C
inactive: [1] 110 % of control | [2] 106 % of control | [3] 102 % of control | [4] 97 % of control

CC(Cl)CO (centres undefined)
inactive: dose: 75.0 mg/kg/injection, schedule: Q01DX001 (ip), vehicle: carboxymethylcellulose (CMC) 108 % of control | dose: 150.0 mg/kg/injection, schedule: Q01DX001 (ip), vehicle: carboxymethylcellulose (CMC) 97 % of control | dose: 300.0 mg/kg/injection, schedule: Q01DX001 (ip), vehicle: carboxymethylcellulose (CMC) 97 % of control

Cc1ccc(Cl)cc1NC(=O)N(C)C1CCCCC1
inactive: dose: 100.0 mg/kg/injection, schedule: Q01DX001 (ip), vehicle: saline with Tween-80 101 % of control | [5] 94 % of control and 120 % of control | dose: 100.0 mg/kg/injection, schedule: Q04DX002 (ip), vehicle: saline with Tween-80 104 % of control and 106 % of control | [3] 97 % of control | dose: 200.0 mg/kg/injection, schedule: Q01DX001 (ip), vehicle: saline with Tween-80 106 % of control | [6] 96 % of control and 113 % of control | dose: 200.0 mg/kg/injection, schedule: Q04DX002 (ip), vehicle: saline with Tween-80 98 % of control and 109 % of control | [4] 111 % of control | dose: 400.0 mg/kg/injection, schedule: Q01DX001 (ip), vehicle: saline with Tween-80 98 % of control | [7] 100 % of control and 110 % of control | dose: 400.0 mg/kg/injection, schedule: Q04DX002 (ip), vehicle: saline with Tween-80 95 % of control and 112 % of control | [8] 90 % of control

Cc1cc(OCCBr)ccc1[N+](=O)[O-]
inactive: [9] 92 % of control | [10] 95 % of control | [11] 95 % of control

O=C(COc1ccccc1)Oc1c(Cl)c(Cl)c(Cl)c(Cl)c1Cl
inactive: [9] 96 % of control | [12] 103 % of control | [10] 92 % of control | [13] 103 % of control | [11] 98 % of control | [14] 95 % of control

CC(=O)Oc1ccc(C2OC(=O)c3ccccc3N2C(C)=O)cc1 (centres undefined)
inactive: [5] 101 % of control | [6] 101 % of control | [7] 92 % of control

CC(O)CN1CC(C)N(CC(C)O)CC1C (centres undefined)
inactive: [2] 104 % of control | [3] 100 % of control | [15] 102 % of control | [4] 86 % of control | [16] 98 % of control | [8] 88 % of control

C[n+]1cccc(S(=O)(=O)[O-])c1
inactive: [3] 104 % of control | [4] 101 % of control | [8] 101 % of control

O=S(=O)(c1ccc(O)c(F)c1)c1ccc(O)c(F)c1
inactive: dose: 100.0 mg/kg/injection, schedule: Q04DX002 (ip), vehicle: gum acacia 90 % of control | dose: 200.0 mg/kg/injection, schedule: Q04DX002 (ip), vehicle: gum acacia 101 % of control

CC(C)CCC[C@@H](C)[C@H]1CC[C@H]2[C@@H]3CC=C4C[C@@H](Cl)CC[C@]4(C)[C@H]3CC[C@]12C
inactive: dose: 100.0 mg/kg/injection, schedule: Q01DX009 (sc), vehicle: Klucel (hydroxypropylcellulose) (HPC) 110 % of control | dose: 200.0 mg/kg/injection, schedule: Q01DX009 (sc), vehicle: Klucel (hydroxypropylcellulose) (HPC) 101 % of control | dose: 400.0 mg/kg/injection, schedule: Q01DX009 (sc), vehicle: Klucel (hydroxypropylcellulose) (HPC) 114 % of control

CC1CC2NC(C)CC3NC(C)CC(N1)N32 (centres undefined)
inactive: [12] 106 % of control | [13] 97 % of control | [14] 111 % of control

OCC1OC(n2ccc3c2ncn2nnnc32)C(O)C1O (centres undefined)
inactive: dose: 12.5 mg/kg/injection, schedule: Q01DX009 (ip), vehicle: saline 91 % of control | dose: 12.5 mg/kg/injection, schedule: Q04DX003 (ip), vehicle: saline 102 % of control | dose: 25.0 mg/kg/injection, schedule: Q01DX009 (ip), vehicle: saline 102 % of control | dose: 25.0 mg/kg/injection, schedule: Q04DX003 (ip), vehicle: saline 107 % of control | dose: 50.0 mg/kg/injection, schedule: Q04DX003 (ip), vehicle: saline 105 % of control

CCCCCCCCCCCCNC(=O)Nc1cc(C)ccc1C
inactive: [17] 97 % of control | [12] 94 % of control | [18] 86 % of control | [13] 95 % of control | [19] 86 % of control | [14] 97 % of control

CCN(CC)c1cc(Cl)c(C=O)cc1Br
inactive: [17] 98 % of control | [12] 105 % of control | [18] 100 % of control | [13] 98 % of control | [19] 100 % of control | [14] 104 % of control

CCOC(OCC)OC(C)=O
inactive: [2] 107 % of control | [3] 110 % of control | [15] 98 % of control | [4] 97 % of control | [16] 90 % of control | [8] 103 % of control

NC(=Nc1ccc([N+](=O)[O-])cc1)c1ccc(C(N)=Nc2ccc([N+](=O)[O-])cc2)cc1
inactive: dose: 6.25 mg/kg/injection, schedule: Q01DX015 (ip), vehicle: methylcellulose (MC) 102 % of control | dose: 12.5 mg/kg/injection, schedule: Q01DX015 (ip), vehicle: methylcellulose (MC) 100 % of control | dose: 25.0 mg/kg/injection, schedule: Q01DX015 (ip), vehicle: methylcellulose (MC) 96 % of control | dose: 50.0 mg/kg/injection, schedule: Q01DX015 (ip), vehicle: methylcellulose (MC) 93 % of control | dose: 62.5 mg/kg/injection, schedule: Q01DX015 (ip), vehicle: methylcellulose (MC) 90 % of control

COc1cc(/C=N/NC(=O)c2cccc([N+](=O)[O-])c2)ccc1O
inactive: dose: 100.0 mg/kg/injection, schedule: Q01DX001 (ip), vehicle: carboxymethylcellulose (CMC) 98 % of control | dose: 100.0 mg/kg/injection, schedule: Q01DX009 (ip), vehicle: carboxymethylcellulose (CMC) 97 % of control and 107 % of control | dose: 100.0 mg/kg/injection, schedule: Q04DX002 (ip), vehicle: carboxymethylcellulose (CMC) 101 % of control and 108 % of control | dose: 200.0 mg/kg/injection, schedule: Q01DX001 (ip), vehicle: carboxymethylcellulose (CMC) 96 % of control | dose: 200.0 mg/kg/injection, schedule: Q01DX009 (ip), vehicle: carboxymethylcellulose (CMC) 93 % of control and 103 % of control | dose: 200.0 mg/kg/injection, schedule: Q04DX002 (ip), vehicle: carboxymethylcellulose (CMC) 101 % of control and 104 % of control | dose: 400.0 mg/kg/injection, schedule: Q01DX001 (ip), vehicle: carboxymethylcellulose (CMC) 91 % of control | dose: 400.0 mg/kg/injection, schedule: Q01DX009 (ip), vehicle: carboxymethylcellulose (CMC) 97 % of control and 100 % of control | dose: 400.0 mg/kg/injection, schedule: Q04DX002 (ip), vehicle: carboxymethylcellulose (CMC) 104 % of control and 105 % of control

CCN(CC#CCOc1ccc(Cl)cc1)c1ccccc1
inactive: dose: 25.0 mg/kg/injection, schedule: Q04DX002 (ip), vehicle: Klucel (hydroxypropylcellulose) (HPC) 99 % of control | dose: 50.0 mg/kg/injection, schedule: Q04DX002 (ip), vehicle: Klucel (hydroxypropylcellulose) (HPC) 93 % of control | dose: 100.0 mg/kg/injection, schedule: Q04DX002 (ip), vehicle: Klucel (hydroxypropylcellulose) (HPC) 93 % of control

CCC(=O)N(N=O)c1ccccc1
inactive: dose: 18.8 mg/kg/injection, schedule: Q01DX001 (ip), vehicle: saline 91 % of control

O=C(c1ccc([N+](=O)[O-])cc1)N1C2CCCCCCC21 (centres undefined)
inactive: [1] 121 % of control | dose: 100.0 mg/kg/injection, schedule: Q01DX001 (ip), vehicle: saline 94 % of control | [2] 113 % of control | dose: 200.0 mg/kg/injection, schedule: Q01DX001 (ip), vehicle: saline 89 % of control | [15] 110 % of control

C=C1C=C(C)N(C(C)=O)CCN1C(C)=O
inactive: [2] 95 % of control | [15] 92 % of control | [16] 90 % of control

NC1(C(=O)O)CCc2ccccc2C1 (centres undefined)
inactive: [12] 91 % of control | [14] 99 % of control

CC1(O)C=Cc2ccccc21 (centres undefined)
inactive: dose: 100.0 mg/kg/injection, schedule: Q04DX003 (ip), vehicle: saline with Tween-80 100 % of control | dose: 200.0 mg/kg/injection, schedule: Q04DX003 (ip), vehicle: saline with Tween-80 95 % of control
